According to patent US6406679B1, “Use of HL-60-related lectins in drug delivery and detection of lectin-expressing cells” (Incyte Pharmaceuticals, Inc., priority 1992, dated 2002):
Values joined by “and” are separate entries in the source; they are usually repeats but may differ in a detail not shown here. Equal entries are not always repeated.

Tests used:
Lewis rat = assay: Experimental autoimmune encephalomyelitis (EAE) induced with GPBP/CFA; type: in vivo
From the text: Experimental autoimmune encephalomyelitis (EAE) is a T-cell-mediated disease considered to be a useful model for human paralytic and demyelinating diseases such as multiple sclerosis (Vandenbark, A. et al., J. Immunol. (1985) 135:223). In the Lewis rat, paralytic signs of EAE are induced about 14 days after injecting guinea pig myelin basic protein (GPBP) in Complete Freund's Adjuvant (CFA). It has been shown by Offner, H. et al. (J. Immunol. (1988) 141:3288) that T-cells specific for GPBP in immunized rats recognize amino acid residues 72-89 of GPBP and have the ability to transfer both clinical signs of EAE and delayed-type hypersensitivity reaction to GPBP to other animals.
In the studies reported in this example, EAE was induced by injection of GPBP/CFA as described above.
In one protocol intravenous administration of lectin was started at day 0 relative to 50 μg GPBP/CFA injection, with additional lectin treatment at days 3 and 6. The severity of the disease was determined clinically and histologically:
“Clinical” Ratings are as Follows:
3=Hind quarter paralysis.
“Histologic” Ratings are as Follows:
Slides were examined for degree of inflammation with ratings as follows:
0.5=a few infiltrating cells in the meninges;
1=meningeal infiltration, more organized and concentrated around blood vessels;
2-4=increasing intensity of meningeal infiltration and perivascular cuffing in the CNS parenchyma.
In a second protocol, lectin was first administered three days before immunization with 50 μg GPBP/CFA and was followed by daily injections until day 7 after immunization.
In an additional experiment, animals were given various doses of lectin on days 0-12, following the administration of 10 μg GPBP injected intramuscularly.

rats = assay: Skin allograft, single grafts (FIG. 14); type: in vivo, rat; conditions: 5 mg/kg recombinant lectin
Description: In this experiment, 5 mg/kg recombinant lectin was used on rats bearing single grafts and the day of graft rejection was noted.

lymph node cells = assay: Proliferative response of draining lymph node cells of GPBP/CFA-injected rats; type: in vivo, rat
Description: At the indicated times after injection of 50 μg GPBP/CFA, lymph nodes draining the site of injection were collected and tested for a proliferative response to GPBP, purified protein derivative (PPD), and the T-cell mitogen, Concanavalin A (ConA). Consistent with the DTH test, lymph node cells of the lectin-treated rats had low or absent responses to both GPBP and PPD relative to control rats, especially on days 14 and 21 during which EAE onset occurs.

BALB/c mice [1] = assay: B-cell repertoire: hybridoma clones producing antibodies against the immunizing antigen; type: in vivo, mouse; conditions: for Number of Clones Producing Antibodies: 180 primary clones; for Experimental % of Control: clones with lectin vs antigen only
Description: The effect of the recombinant lectin on B-cell activation in BALB/c mice was also assayed using standard assays determining the number of hybridomas secreting antibodies to the administered antigen.
Three BALB/c female mice (7-8 weeks old) were injected intraperitoneally with 5 μg of […], tetanus toxoid or pneumococcal polysaccharide, respectively, in complete Freund's adjuvant. Two weeks later, the mice were injected intravenously with the same amount of antigen in 0.15 M sodium phosphate buffer, pH 7.4. […]. A mixture of capsular polysaccharide extracts from 23 different serotypes of Streptococcus pneumoniae (Pneumovax®) was obtained from Merck Sharp & Dohme, Inc. (West Point, Pa.). Three other mice of the same strain were similarly immunized with these antigens in combination with 15 μg of the recombinant lectin; controls received only the antigens.
The animals were sacrificed 4 days after the booster injection and spleen cells (10^8 cells) were fused with the nonsecreting B-lymphocytoma cell line SP2-OAg14 (2×10^7 cells). The cell mixture was distributed in 6×96 Costar tray wells (2×10^5 cells/well) with a feeder layer of mouse peritoneal macrophages (5×10^5 cells/well). From the third day in culture HAT (hypoxanthine-aminopterin-thymidine) medium was added. After 10-14 days, supernatants were assayed for binding to the respective antigens used for immunization using an enzyme-linked immunosorbent assay (ELISA).

BALB/c mice [2] = assay: Primary immune response: serum antibody levels; type: in vivo, mouse
Description: The effect of coadministration of lectin on the B-cell repertoire mounted as a primary response to immunization was also tested directly by antibody formation in the sera. Immunoassays for antibody content for the various antigens were performed as follows:
For immunization with Torpedo acetylcholine receptor, microtiter: wells were coated overnight with 100 μl of a solution containing 5 μg/ml of purified receptor as prepared in Example 8, Part A, and incubated with serum (diluted 1/25) for 3 hours at 37° C. After washing, the plates were incubated for 3 hours at 37° C. with alkaline phosphatase-conjugated goat anti-mouse immunoglobulins. The plates were then washed extensively and incubated for 1 hour at 37° C. with […] ethanolamine buffer. The reaction was stopped by addition of 25 μl of 3 M NaOH, and the binding of the labeled antibody was measured in an ELISA microreader at 405 nm. […]
For antibodies against mouse AChR, antibodies were determined using as antigen a complex between a partially purified normal mouse skeletal muscle receptor and ^125I-alpha-bungarotoxin. […]
. […] The reaction was stopped by addition of 25 μl of 3 M NaOH, and the binding of the labeled antibody was measured in an ELISA microreader at 405 nm. […]
. Blood was obtained after 3 days and again after 1, 2, 3 and 4 weeks and antibody levels were determined as described above.

established T-cell lines = assay: Lectin added to established T-cell lines; type: cell-based, rat; conditions: lectin added in vitro
From the text: In a follow-up experiment, T-cell lines were selected from the draining lymph nodes.

rat lymphocytes = assay: Binding to sections of lymphoid organs (lymph nodes and Peyer's patch); type: cell-based; conditions: control level binding very low, result cannot be relied on
Description: Sections of lymphoid organs (lymph nodes and Peyer's patch) were tested as above.

[3] = 250 μg lectin Days −3 to 6 daily
[4] = 250 μg lectin Days −3 to 6 daily, background subtracted
[5] = 250 μg lectin Days −3 to 6 daily, scale 0-4

Substance: Lectin: Soluble 14 kD β-galactoside-binding HL-60/placenta lectin of FIG. 1 (SEQ ID NO:2), prepared recombinantly in E. coli
- Duration (Lewis rat; 250 μg lectin Days 0, 3, 6): 3.0 days and 3 days
- Loss of Weight (Lewis rat; 250 μg lectin Days 0, 3, 6): 20 g
- Severity of Disease, Histological Rating (Lewis rat; 250 μg lectin Days 0, 3, 6, scale 0-4): 3.5
- Duration (days) (Lewis rat; [3]): 0^3 days
- Loss of Weight (g) (Lewis rat; [3]): None^3
- GPBP DTH (delayed type hypersensitivity reaction, swelling) (Lewis rat; [4]): 9 mm/100
- PPD DTH (delayed type hypersensitivity reaction, swelling) (Lewis rat; [4]): 4 mm/100
- Clinical Severity of Disease (Lewis rat; [5]): 0^3/
- Histologic Severity of Disease (Lewis rat; [5]): 0.50^3
- Day of Onset (Lewis rat; 250 μg lectin i.v. Days 0, 3, 6, 50 μg GPBP/CFA): 17 days
- daily dosage optimal for ameliorating the symptoms (Lewis rat; 10-1500 μg intraperitoneally days 0-12, 10 μg GPBP, FIGS. 10 and 11): 500 µg
- development of the disease (EAE) (Lewis rat; lectin from three days before immunization, daily until day 7): prevented completely
- rejection of the skin allograft (rats): considerably delayed
- lymph node cell proliferative responses to GPBP and PPD (lymph node cells; lectin-treated rats relative to control, especially days 14 and 21, FIG. 12): low or absent
- lymph node cell responses to ConA (lymph node cells; lectin-treated rats, FIG. 12): normal or augmented
- Number of Clones Producing Antibodies (BALB/c mice [1]; Pneumococcal polysaccharide + 15 μg lectin): 111
- Experimental % of Control (BALB/c mice [1]; Pneumococcal polysaccharide): 78%
- Number of Clones Producing Antibodies (BALB/c mice [1]; Tetanus toxoid + 15 μg lectin): 79
- Experimental % of Control (BALB/c mice [1]; Tetanus toxoid): 48%
- Number of Clones Producing Antibodies (BALB/c mice [1]; Torpedo receptor + 15 μg lectin): 54
- Experimental % of Control (BALB/c mice [1]; Torpedo receptor): 41%
- primary immune response to pneumococcal polysaccharide (T-independent antigen) (BALB/c mice [2]; any dose, FIG. 7): No effect
- primary immune response to T-dependent antigens (BALB/c mice [2]; higher doses of lectin (15 and 25 μg), FIGS. 6, 8, 9): significantly lowered
- effect on established T-cell lines (established T-cell lines): no inhibitory effect
- Effect on binding of rat lymphocytes to lymphoid organ sections (rat lymphocytes): no noticeable effect
